Source: patent US20090012103A1, “SUBSTITUTED HETEROCYCLIC COMPOUNDS” (priority 2007, published 2009)

How the values were obtained:
[1] = molecular target: wild-type human cardiac sodium channel, hNav1.5 (Homo sapiens, UniProt Q14524); experiment: Late INa screening assay (late sodium current, PatchXpress whole cell patch clamp); assay type: cell-based; details: for inhibition at 10 µM: compound at 10 μM, read-out: Late INa % blk
[2] = molecular target: hERG potassium channel (Homo sapiens, UniProt Q12809); experiment: hERG screening assay (PatchXpress patch clamp, CHO cell line)
Chain of hERG potassium channel (Q12809 whole entry): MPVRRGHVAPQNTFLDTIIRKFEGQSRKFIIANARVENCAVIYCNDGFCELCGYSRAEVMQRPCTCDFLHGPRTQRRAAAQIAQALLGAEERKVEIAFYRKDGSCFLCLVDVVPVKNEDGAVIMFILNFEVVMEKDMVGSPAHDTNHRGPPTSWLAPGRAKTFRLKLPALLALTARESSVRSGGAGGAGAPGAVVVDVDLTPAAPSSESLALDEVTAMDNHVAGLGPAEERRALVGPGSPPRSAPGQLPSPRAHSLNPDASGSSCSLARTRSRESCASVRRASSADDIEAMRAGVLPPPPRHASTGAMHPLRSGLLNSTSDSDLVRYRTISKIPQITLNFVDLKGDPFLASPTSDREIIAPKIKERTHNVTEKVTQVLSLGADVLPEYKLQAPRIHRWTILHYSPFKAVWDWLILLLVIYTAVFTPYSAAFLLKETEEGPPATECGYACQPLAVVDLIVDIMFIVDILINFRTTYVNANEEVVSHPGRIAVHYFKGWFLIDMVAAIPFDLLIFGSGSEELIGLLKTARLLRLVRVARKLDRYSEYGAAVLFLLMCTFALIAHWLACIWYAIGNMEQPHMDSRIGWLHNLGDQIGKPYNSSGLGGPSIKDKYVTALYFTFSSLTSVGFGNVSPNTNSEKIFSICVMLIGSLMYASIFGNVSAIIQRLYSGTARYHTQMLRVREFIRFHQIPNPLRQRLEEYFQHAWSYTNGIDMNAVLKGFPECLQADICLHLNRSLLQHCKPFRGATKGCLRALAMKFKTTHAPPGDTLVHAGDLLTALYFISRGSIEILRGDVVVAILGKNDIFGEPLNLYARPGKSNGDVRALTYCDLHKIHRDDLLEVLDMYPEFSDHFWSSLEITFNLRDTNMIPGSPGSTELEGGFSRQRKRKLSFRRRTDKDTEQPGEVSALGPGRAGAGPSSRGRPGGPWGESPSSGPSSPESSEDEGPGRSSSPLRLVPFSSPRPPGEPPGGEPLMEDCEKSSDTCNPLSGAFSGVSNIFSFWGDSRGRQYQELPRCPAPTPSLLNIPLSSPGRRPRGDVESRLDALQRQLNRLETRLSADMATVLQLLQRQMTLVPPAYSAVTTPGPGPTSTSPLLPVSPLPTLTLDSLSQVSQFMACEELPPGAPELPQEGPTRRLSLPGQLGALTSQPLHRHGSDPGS

Chain of wild-type human cardiac sodium channel, hNav1.5 (Q14524 whole entry): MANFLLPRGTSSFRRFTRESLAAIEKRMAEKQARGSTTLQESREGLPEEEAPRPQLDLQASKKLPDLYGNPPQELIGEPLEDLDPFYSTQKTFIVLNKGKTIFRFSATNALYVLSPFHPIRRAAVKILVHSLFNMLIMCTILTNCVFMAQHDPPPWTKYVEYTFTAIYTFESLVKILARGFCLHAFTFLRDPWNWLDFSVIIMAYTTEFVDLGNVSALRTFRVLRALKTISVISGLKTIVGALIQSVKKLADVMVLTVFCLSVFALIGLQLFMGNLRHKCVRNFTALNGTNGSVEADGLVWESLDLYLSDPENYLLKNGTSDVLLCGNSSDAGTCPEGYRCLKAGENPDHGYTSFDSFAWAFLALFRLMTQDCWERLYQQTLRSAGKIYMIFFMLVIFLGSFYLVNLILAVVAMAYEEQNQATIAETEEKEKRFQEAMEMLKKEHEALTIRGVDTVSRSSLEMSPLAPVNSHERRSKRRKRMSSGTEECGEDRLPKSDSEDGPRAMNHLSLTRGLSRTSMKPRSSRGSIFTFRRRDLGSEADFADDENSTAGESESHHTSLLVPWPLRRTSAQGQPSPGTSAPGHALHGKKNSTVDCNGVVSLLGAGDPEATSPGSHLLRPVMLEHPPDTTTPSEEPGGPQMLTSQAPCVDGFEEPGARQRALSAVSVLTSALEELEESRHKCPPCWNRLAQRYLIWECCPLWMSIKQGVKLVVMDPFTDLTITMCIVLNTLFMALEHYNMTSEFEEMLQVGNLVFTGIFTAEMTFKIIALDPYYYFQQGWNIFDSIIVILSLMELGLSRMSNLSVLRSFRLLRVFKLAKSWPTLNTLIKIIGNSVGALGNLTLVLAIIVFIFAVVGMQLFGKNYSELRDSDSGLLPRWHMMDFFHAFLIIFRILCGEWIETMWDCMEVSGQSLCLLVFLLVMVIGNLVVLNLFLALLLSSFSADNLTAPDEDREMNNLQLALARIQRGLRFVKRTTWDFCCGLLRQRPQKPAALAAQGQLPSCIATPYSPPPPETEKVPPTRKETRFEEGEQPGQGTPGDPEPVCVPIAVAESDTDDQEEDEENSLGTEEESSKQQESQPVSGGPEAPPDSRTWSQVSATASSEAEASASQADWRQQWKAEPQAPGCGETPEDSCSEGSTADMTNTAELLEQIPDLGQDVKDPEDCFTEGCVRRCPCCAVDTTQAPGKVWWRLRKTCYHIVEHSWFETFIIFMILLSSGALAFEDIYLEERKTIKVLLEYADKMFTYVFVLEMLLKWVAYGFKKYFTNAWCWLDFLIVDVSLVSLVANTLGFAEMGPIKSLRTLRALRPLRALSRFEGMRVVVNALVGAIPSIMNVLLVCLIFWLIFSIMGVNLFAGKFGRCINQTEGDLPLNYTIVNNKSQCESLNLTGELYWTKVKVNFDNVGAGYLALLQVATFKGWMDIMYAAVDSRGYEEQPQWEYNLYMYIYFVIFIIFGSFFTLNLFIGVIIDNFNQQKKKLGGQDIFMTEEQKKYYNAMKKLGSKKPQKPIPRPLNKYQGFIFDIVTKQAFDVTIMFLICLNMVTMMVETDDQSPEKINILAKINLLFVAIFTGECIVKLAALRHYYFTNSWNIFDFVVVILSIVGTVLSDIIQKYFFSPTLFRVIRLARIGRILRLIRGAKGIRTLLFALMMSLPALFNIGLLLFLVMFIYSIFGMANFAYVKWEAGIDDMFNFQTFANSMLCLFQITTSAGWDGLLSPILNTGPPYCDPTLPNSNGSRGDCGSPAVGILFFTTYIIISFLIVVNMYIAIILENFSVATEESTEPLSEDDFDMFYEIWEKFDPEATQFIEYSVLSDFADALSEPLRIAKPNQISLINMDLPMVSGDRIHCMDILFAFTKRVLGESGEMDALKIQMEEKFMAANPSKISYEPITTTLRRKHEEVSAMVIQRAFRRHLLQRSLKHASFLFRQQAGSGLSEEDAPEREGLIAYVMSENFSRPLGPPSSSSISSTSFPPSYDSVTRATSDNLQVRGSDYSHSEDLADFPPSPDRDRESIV

## CCOC(=O)C1=C(C)Nc2nnnn2C1c1ccccc1-n1ccnc1.Cl (stereo not shown) [PT-476, ethyl 7-(2-(1H-imidazol-1-yl)phenyl)-5-methyl-4,7-dihydrotetrazolo[1,5-a]pyrimidine-6-carboxylate hydrochloride]
[1]
  inhibition at 10 µM: 2.6%
[2]; 1 μM
  hERG Patch Clamp hERG % blk: 17.5%
[2]; 10 μM
  hERG Patch Clamp hERG % blk: 23.0%

## N#CC1=C(N)NC2=C(C(=O)CCC2)C1c1ccc(Br)cc1 (stereo not shown) [PT-095, 2-amino-4-(4-bromophenyl)-5-oxo-1,4,5,6,7,8-hexahydroquinoline-3-carbonitrile]
[1]
  inhibition at 10 µM: 4.9%
[2]; 1 μM
  hERG Patch Clamp hERG % blk: 10.0%
[2]; 10 μM
  hERG Patch Clamp hERG % blk: 24.5%

## CCOC(=O)C1=C(C)Nc2nccn2C1c1ccc2ccccc2c1 (stereo not shown) [PT-086, ethyl 7-methyl-5-(naphthalen-2-yl)-5,8-dihydroimidazo[1,2-a]pyrimidine-6-carboxylate]
[1]
  inhibition at 10 µM: 38.8%
[2]; 1 μM
  hERG Patch Clamp hERG % blk: 13.5%
[2]; 10 μM
  hERG Patch Clamp hERG % blk: 57.5%

## CCOC(=O)C1=C(C)Nc2c(c(C)nn2C)C1c1cccc2ccccc12 (stereo not shown) [PT-440, ethyl 1,3,6-trimethyl-4-(naphthalen-1-yl)-4,7-dihydro-1H-pyrazolo[3,4-b]pyridine-5-carboxylate]
[1]
  inhibition at 10 µM: 42.8%
[2]; 1 μM
  hERG Patch Clamp hERG % blk: 12.0%
[2]; 10 μM
  hERG Patch Clamp hERG % blk: 48.0%

## CCOC(=O)C1=C(C)NC2=C(C(=O)CCC2)C1c1ccnc2ccccc12 (stereo not shown) [PT-190, ethyl 2-methyl-5-oxo-1,4,5,6,7,8-hexahydro-4,4′-biquinoline-3-carboxylate]
[1]
  inhibition at 10 µM: 4.2%
[2]; 1 μM
  hERG Patch Clamp hERG % blk: 10.5%
[2]; 10 μM
  hERG Patch Clamp hERG % blk: 32.0%

## CC1=C(C(=O)OCc2ccccc2)C(c2ccccc2-c2ccccc2)n2nnnc2N1 (stereo not shown) [PT-025, benzyl 7-(biphenyl-2-yl)-5-methyl-4,7-dihydrotetrazolo[1,5-a]pyrimidine-6-carboxylate]
[1]
  inhibition at 10 µM: 78.8%
[2]; 1 μM
  hERG Patch Clamp hERG % blk: 11.0%
[2]; 10 μM
  hERG Patch Clamp hERG % blk: 53.0%

## CCOC(=O)C1=C(C)NC(C)=C(C(=O)OCC)C1c1sc2ccccc2c1C [PT-116, diethyl 2,6-dimethyl-4-(3-methylbenzo[b]thiophen-2-yl)-1,4-dihydropyridine-3,5-dicarboxylate]
[2]; 1 μM
  hERG Patch Clamp hERG % blk: 22.9%
[2]; 10 μM
  hERG Patch Clamp hERG % blk: 66.0%

## CCOC(=O)C1=C(C)Nc2[nH]nc(C)c2C1c1cccc2ccccc12 (stereo not shown) [PT-074, ethyl 3,6-dimethyl-4-(naphthalen-1-yl)-4,7-dihydro-1H-pyrazolo[3,4-b]pyridine-5-carboxylate]
[1]
  inhibition at 10 µM: 27.7%
[2]; 1 μM
  hERG Patch Clamp hERG % blk: 14.0%
[2]; 10 μM
  hERG Patch Clamp hERG % blk: 43.0%

## CC1=C(C(=O)OCc2ccccc2)C(c2c(Br)sc3ccccc23)n2nnnc2N1 (stereo not shown) [PT-386, benzyl 7-(2-bromobenzo[b]thiophen-3-yl)-5-methyl-4,7-dihydrotetrazolo[1,5-a]pyrimidine-6-carboxylate]
[1]
  inhibition at 10 µM: 79.2%
[2]; 1 μM
  hERG Patch Clamp hERG % blk: 10.0%
[2]; 10 μM
  hERG Patch Clamp hERG % blk: 16.5%

## CCOC(=O)C1=C(C)NC(C)=C(C(=O)OCC)C1c1cc2ccccc2o1 [PT-122, diethyl 4-(benzofuran-2-yl)-2,6-dimethyl-1,4-dihydropyridine-3,5-dicarboxylate]
[1]
  inhibition at 10 µM: 80.3%
[2]; 1 μM
  hERG Patch Clamp hERG % blk: 15.5%
[2]; 10 μM
  hERG Patch Clamp hERG % blk: 55.0%

## N#CC1=C(N)OC2=C(C(=O)CC(c3ccccc3)C2)C1c1ccco1 (stereo not shown) [PT-104, 2-amino-4-(furan-2-yl)-5-oxo-7-phenyl-5,6,7,8-tetrahydro-4H-chromene-3-carbonitrile]
[1]
  inhibition at 10 µM: 14.3%
[2]; 1 μM
  hERG Patch Clamp hERG % blk: 18.0%
[2]; 10 μM
  hERG Patch Clamp hERG % blk: 46.0%

## CC1=C(C(=O)OCc2ccccc2)C(c2nccs2)n2nnnc2N1 (stereo not shown) [PT-364, benzyl 5-methyl-7-(thiazol-2-yl)-4,7-dihydrotetrazolo[1,5-a]pyrimidine-6-carboxylate]
[1]
  inhibition at 10 µM: 25.8%
[2]; 1 μM
  hERG Patch Clamp hERG % blk: 10.0%
[2]; 10 μM
  hERG Patch Clamp hERG % blk: 17.5%

## COC(=O)C1=C(C)Nc2nnnn2C1c1cccc2ccccc12 (stereo not shown) [PT-512, methyl 5-methyl-7-(naphthalen-1-yl)-4,7-dihydrotetrazolo[1,5-a]pyrimidine-6-carboxylate]
[1]
  inhibition at 10 µM: 26.6%
[2]; 1 μM
  hERG Patch Clamp hERG % blk: 10.5%
[2]; 10 μM
  hERG Patch Clamp hERG % blk: 14.0%

## CC1=C(C(=O)OCc2ccccc2)C(c2ccccc2-c2ccc(C(=O)O)cc2)n2nnnc2N1 (stereo not shown) [PT-254, 2′-(6-(benzyloxycarbonyl)-5-methyl-4,7-dihydrotetrazolo[1,5-a]pyrimidin-7-yl)biphenyl-4-carboxylic acid]
[1]
  inhibition at 10 µM: 10.7%
[2]; 1 μM
  hERG Patch Clamp hERG % blk: 15.0%
[2]; 10 μM
  hERG Patch Clamp hERG % blk: 20.0%

## CCOC(=O)C1=C(C)Nc2nnnn2C1c1ccccc1-n1ccnc1C.Cl (stereo not shown) [PT-457, ethyl 5-methyl-7-(2-(2-methyl-1H-imidazol-1-yl)phenyl)-4,7-dihydrotetrazolo[1,5-a]pyrimidine-6-carboxylate hydrochloride]
[1]
  inhibition at 10 µM: 12.6%
[2]; 1 μM
  hERG Patch Clamp hERG % blk: 10.0%
[2]; 10 μM
  hERG Patch Clamp hERG % blk: 21.0%

## CC1=C(C(=O)OCc2ccccc2)C(c2ccccc2-c2ccc(C(=O)O)cc2)C2=C(CCCC2=O)N1 (stereo not shown) [PT-249, 2′-(3-(benzyloxycarbonyl)-2-methyl-5-oxo-1,4,5,6,7,8-hexahydroquinolin-4-yl)biphenyl-4-carboxylic acid]
[1]
  inhibition at 10 µM: 20%
[2]; 1 μM
  hERG Patch Clamp hERG % blk: 11.5%
[2]; 10 μM
  hERG Patch Clamp hERG % blk: 15.5%

## CC1=C(C(=O)O[C@@H](C)c2ccccc2)C(c2cc3ccccc3o2)n2nnnc2N1 (stereo partly drawn) [PT-059, (S)-1-phenylethyl 7-(benzofuran-2-yl)-5-methyl-4,7-dihydrotetrazolo[1,5-a]pyrimidine-6-carboxylate]
[2]; 1 μM
  hERG Patch Clamp hERG % blk: 10.0%
[2]; 10 μM
  hERG Patch Clamp hERG % blk: 66.5%

## CCOC(=O)C1=C(C)Nc2nnnn2C1c1ccccc1-c1cccc(-c2nnn[nH]2)c1 (stereo not shown) [PT-493, ethyl 7-(3′-(1H-tetrazol-5-yl)biphenyl-2-yl)-5-methyl-4,7-dihydrotetrazolo[1,5-a]pyrimidine-6-carboxylate]
[1]
  inhibition at 10 µM: 0.5%
[2]; 1 μM
  hERG Patch Clamp hERG % blk: 10.0%
[2]; 10 μM
  hERG Patch Clamp hERG % blk: 10.0%

## CC1=C(C(=O)N2CCN(c3ccccc3)CC2)C(c2ccc3ccccc3c2)C2=C(CCCC2=O)N1 (stereo not shown) [PT-165, 2-methyl-4-(naphthalen-2-yl)-3-(4-phenylpiperazine-1-carbonyl)-4,6,7,8-tetrahydroquinolin-5(1H)-one]
[1]; result in words
  effect on late sodium current: potentiated late sodium current
[2]; 1 μM
  hERG Patch Clamp hERG % blk: 30.5%
[2]; 10 μM
  hERG Patch Clamp hERG % blk: 64.5%

## CC1=C(c2nnc(CCc3ccccc3)o2)C(c2cccc3ccccc23)n2nnnc2N1 (stereo not shown) [PT-252, 2-(5-methyl-7-(naphthalen-1-yl)-4,7-dihydrotetrazolo[1,5-a]pyrimidin-6-yl)-5-phenethyl-1,3,4-oxadiazole]
[1]
  inhibition at 10 µM: 70%
[2]; 1 μM
  hERG Patch Clamp hERG % blk: 10.5%
[2]; 10 μM
  hERG Patch Clamp hERG % blk: 78.0%

## CCOC(=O)C1=C(C)Nc2nnnn2C1c1cc2ccccc2o1 (stereo not shown) [PT-019, ethyl 7-(benzofuran-2-yl)-5-methyl-4,7-dihydrotetrazolo[1,5-a]pyrimidine-6-carboxylate]
[1]
  inhibition at 10 µM: 35.7%
[2]; 1 μM
  hERG Patch Clamp hERG % blk: 10.0%
[2]; 10 μM
  hERG Patch Clamp hERG % blk: 26.0%

## CCOC(=O)C1=C(C)NC2=C(C(=O)CCC2)C1c1cccc2ncccc12 (stereo not shown) [PT-140, ethyl 2-methyl-5-oxo-1,4,5,6,7,8-hexahydro-4,5′-biquinoline-3-carboxylate]
[1]
  inhibition at 10 µM: 6.3%
[2]; 1 μM
  hERG Patch Clamp hERG % blk: 13.5%
[2]; 10 μM
  hERG Patch Clamp hERG % blk: 34.5%

## CC1=C(C(=O)OCc2ccccc2)C(c2ccccc2-c2ccc(NS(C)(=O)=O)cc2)c2cn[nH]c2N1 (stereo not shown) [PT-366, benzyl 6-methyl-4-(4′-(methylsulfonamido)biphenyl-2-yl)-4,7-dihydro-1H-pyrazolo[3,4-b]pyridine-5-carboxylate]
[1]
  inhibition at 10 µM: 87.8%
[2]; 1 μM
  hERG Patch Clamp hERG % blk: 28.0%
[2]; 10 μM
  hERG Patch Clamp hERG % blk: 92.0%

## COc1ccc2ccccc2c1C1C(C(=O)OCc2ccccc2)=C(C)Nc2nnnn21 (stereo not shown) [PT-030, benzyl 7-(2-methoxynaphthalen-1-yl)-5-methyl-4,7-dihydrotetrazolo[1,5-a]pyrimidine-6-carboxylate]
[1]
  inhibition at 10 µM: 66.5%
[2]; 1 μM
  hERG Patch Clamp hERG % blk: 10.5%
[2]; 10 μM
  hERG Patch Clamp hERG % blk: 34.5%

## CCS(=O)(=O)N1CCN(c2cccc(OC)c2C2C(C(=O)OCc3ccccc3)=C(C)Nc3nnnn32)CC1 (stereo not shown) [PT-378, benzyl 7-(2-(4-(ethylsulfonyl)piperazin-1-yl)-6-methoxyphenyl)-5-methyl-4,7-dihydrotetrazolo[1,5-a]pyrimidine-6-carboxylate]
[1]
  inhibition at 10 µM: 42%
[2]; 1 μM
  hERG Patch Clamp hERG % blk: 10.0%
[2]; 10 μM
  hERG Patch Clamp hERG % blk: 41.5%

## CC1=C(C(=O)OCc2ccccc2)C(c2csc3ccccc23)n2nnnc2N1 (stereo not shown) [PT-042, benzyl 7-(benzo[b]thiophen-3-yl)-5-methyl-4,7-dihydrotetrazolo[1,5-a]pyrimidine-6-carboxylate]
[1]
  inhibition at 10 µM: 76.5%
[2]; 1 μM
  hERG Patch Clamp hERG % blk: 11.0%
[2]; 10 μM
  hERG Patch Clamp hERG % blk: 52.5%

## COc1cc(Cl)ccc1COC(=O)C1=C(C)NC2=C(C(=O)CCC2)C1c1c(Cl)cccc1Cl (stereo not shown) [PT-303, 4-chloro-2-methoxybenzyl 4-(2,6-dichlorophenyl)-2-methyl-5-oxo-1,4,5,6,7,8-hexahydroquinoline-3-carboxylate]
[1]
  inhibition at 10 µM: 59.9%
[2]; 1 μM
  hERG Patch Clamp hERG % blk: 12.0%
[2]; 10 μM
  hERG Patch Clamp hERG % blk: 30.5%

## CC1=C(C(=O)OCc2ccccc2)C(c2c3ccccc3cc3ccccc23)n2nnnc2N1 (stereo not shown) [PT-039, benzyl 7-(anthracen-9-yl)-5-methyl-4,7-dihydrotetrazolo[1,5-a]pyrimidine-6-carboxylate]
[1]
  inhibition at 10 µM: 82.1%
[2]; 1 μM
  hERG Patch Clamp hERG % blk: 10.0%
[2]; 10 μM
  hERG Patch Clamp hERG % blk: 27.5%

## CC1=C(C(=O)OCc2ccccc2)C(c2ccc(N(C)C)cc2[N+](=O)[O-])n2nnnc2N1 (stereo not shown) [PT-409, benzyl 7-(4-(dimethylamino)-2-nitrophenyl)-5-methyl-4,7-dihydrotetrazolo[1,5-a]pyrimidine-6-carboxylate]
[1]
  inhibition at 10 µM: 43.1%
[2]; 1 μM
  hERG Patch Clamp hERG % blk: 27.0%
[2]; 10 μM
  hERG Patch Clamp hERG % blk: 78.5%
